The values below come from PubChem BioAssay (NCI).

SMILES strings stand for the structures.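 The compound was tested at five concentrations on cells cultured in 96-well plates, with a 48-hour exposure period. GI50: concentration for 50% inhibition of growth. TGI is the concentration that stops growth completely.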

Among the test systems are CAKI-1 renal; CCRF-CEM leukemia; COLO 205 colon; HCT-116 colon; HS 578T breast; MALME-3M melanoma; RPMI-8226 leukemia; SK-OV-3 ovarian; SNB-75 CNS; SW-620 colon.
What all share (experiment): inhibition of tumour cell growth, NCI panel, 48 h

Turning to `O=C(O)c1cc(N=Cc2ccccc2O)cc(C(=O)O)c1`, the TGI with CAKI-1 renal, in the experiment with CCRF-CEM leukemia, in the experiment with COLO 205 colon, in the experiment on HCT-116 colon, in the experiment with HS 578T breast and in the experiment with MALME-3M melanoma was above 100 µM throughout. For the same molecule, the TGI in the experiment with RPMI-8226 leukemia, in the experiment on SK-OV-3 ovarian, with SNB-75 CNS and in the experiment on SW-620 colon was above 100 µM each time.

As to `COc1cc(-c2nc3sc4c(c3c(=O)[nH]2)CCCCCC4)cc(OC)c1OC`, the GI50 was 1.23 µM in the experiment on CAKI-1 renal; 1.28 µM in the experiment on CCRF-CEM leukemia; 1.16 µM with COLO 205 colon; 1.21 µM in the experiment with HCT-116 colon; 0.922 µM in the experiment on HS 578T breast; 4.32 µM in the experiment on MALME-3M melanoma. For the same molecule, the GI50 in the experiment with RPMI-8226 leukemia was 1.19 µM; in the experiment on SK-OV-3 ovarian, 0.89 µM; in the experiment on SNB-75 CNS, 0.701 µM; in the experiment on SW-620 colon, 1.5 µM. Also, the TGI was above 33.2 µM with CAKI-1 renal; above 33.2 µM in the experiment on CCRF-CEM leukemia; 10.3 µM with COLO 205 colon; 5.72 µM in the experiment with HCT-116 colon; 9.76 µM in the experiment with HS 578T breast; 20.5 µM with MALME-3M melanoma. Besides, the TGI in the experiment with RPMI-8226 leukemia was 12.6 µM; with SK-OV-3 ovarian, 16.4 µM; in the experiment on SNB-75 CNS, 2.52 µM; in the experiment on SW-620 colon it was above 33.2 µM.

In the case of `COc1cccc(/C=C/c2cnc3ccccc3n2)c1OC`, the TGI with CAKI-1 renal was above 100 µM; in the experiment on CCRF-CEM leukemia it was above 100 µM; in the experiment with COLO 205 colon, above 100 µM; in the experiment on HCT-116 colon, above 100 µM; with HS 578T breast, 68.5 µM; in the experiment on MALME-3M melanoma, above 100 µM. In addition, the TGI with RPMI-8226 leukemia is above 100 µM; with SK-OV-3 ovarian, above 100 µM; in the experiment with SNB-75 CNS, 79.6 µM; with SW-620 colon it was above 100 µM.

Take `Cc1cc(C)c(O)c(CN(C)Cc2cc(Cl)cc(Cl)c2O)c1`: the GI50 is 2.77 µM in the experiment with CAKI-1 renal; 2.7 µM with CCRF-CEM leukemia; 4.99 µM in the experiment with COLO 205 colon; 3.23 µM with HCT-116 colon; 5.41 µM in the experiment with HS 578T breast; 6.13 µM with MALME-3M melanoma. Besides, the GI50 with RPMI-8226 leukemia was 3.12 µM; in the experiment with SK-OV-3 ovarian, 6.48 µM; in the experiment with SNB-75 CNS, 11.5 µM; with SW-620 colon it was 3.71 µM. Besides, the TGI in the experiment with CAKI-1 renal was determined as 12.2 µM; in the experiment with CCRF-CEM leukemia it was 14.8 µM; in the experiment with COLO 205 colon, 15.3 µM; with HCT-116 colon, 10.8 µM; in the experiment on HS 578T breast it was 32.8 µM; with MALME-3M melanoma it was 20.6 µM. Also, the TGI in the experiment on RPMI-8226 leukemia is 23.2 µM; in the experiment on SK-OV-3 ovarian it was 33 µM; with SNB-75 CNS, 36.4 µM; in the experiment with SW-620 colon, 14.3 µM.

`COC(=O)[C@]12CC[C@@H](C)[C@H](C)[C@@H]1C1=CC[C@@H]3[C@@]4(C)C=C(O)C(=O)[C@@]5(C)COC(=C54)C[C@@]3(C)[C@]1(C)CC2`: the GI50 with CAKI-1 renal is 9.36 µM; with CCRF-CEM leukemia it was 3.38 µM; with COLO 205 colon, 13.5 µM; with HCT-116 colon, 9.49 µM; in the experiment on HS 578T breast, 16.1 µM; in the experiment with MALME-3M melanoma it was 15 µM. The GI50 was 5.57 µM in the experiment with RPMI-8226 leukemia, 14.6 µM in the experiment with SK-OV-3 ovarian, 14.8 µM with SNB-75 CNS and 11.3 µM with SW-620 colon. Besides, the TGI came out at 26.7 µM in the experiment on CAKI-1 renal; 14.9 µM with CCRF-CEM leukemia; 29.6 µM in the experiment with COLO 205 colon; 22.9 µM in the experiment with HCT-116 colon; 49.9 µM in the experiment with HS 578T breast; 32.4 µM in the experiment on MALME-3M melanoma. Moreover, the TGI in the experiment with RPMI-8226 leukemia worked out at 29.7 µM; in the experiment with SK-OV-3 ovarian, 32.5 µM; with SNB-75 CNS it was 43.1 µM; with SW-620 colon it was 26.3 µM.

Take `Cc1ccc2c(O)c(O)cc(NC(C)CCCN)c2n1` (stereo not given): the GI50 was 21.8 µM in the experiment on CAKI-1 renal; 3.73 µM in the experiment with CCRF-CEM leukemia; 3.39 µM in the experiment with COLO 205 colon; 3.06 µM with HCT-116 colon; 13.9 µM in the experiment on HS 578T breast; 18.7 µM in the experiment with MALME-3M melanoma. Also, the GI50 is 8.89 µM in the experiment on RPMI-8226 leukemia, above 78.6 µM in the experiment with SK-OV-3 ovarian, 24.6 µM in the experiment with SNB-75 CNS and 10.2 µM in the experiment on SW-620 colon. Moreover, the TGI with CAKI-1 renal is above 54.7 µM; in the experiment with CCRF-CEM leukemia, 16.8 µM; in the experiment with COLO 205 colon it was 42.5 µM; with HCT-116 colon, above 40 µM; in the experiment on HS 578T breast it was 49.4 µM; in the experiment with MALME-3M melanoma, 41.6 µM. Further, the TGI is above 53.2 µM in the experiment on RPMI-8226 leukemia, above 100 µM with SK-OV-3 ovarian, above 62.7 µM in the experiment with SNB-75 CNS and 51.3 µM with SW-620 colon.

Turning to `C=C1C(=O)O[C@H]2[C@H]1CC/C(COC(=O)NCCc1c[nH]c3ccc(OC)cc13)=C\CC[C@@]1(C)O[C@@H]21`, the GI50 in the experiment with CAKI-1 renal was 1.49 µM; in the experiment on CCRF-CEM leukemia, 0.64 µM; in the experiment with COLO 205 colon, 1.3 µM; in the experiment with HCT-116 colon, 1.46 µM; in the experiment with HS 578T breast, 6.42 µM; with MALME-3M melanoma it was 1.91 µM. The GI50 was 1.44 µM in the experiment on RPMI-8226 leukemia, 14.1 µM in the experiment with SK-OV-3 ovarian, 10 µM in the experiment with SNB-75 CNS and 1.94 µM in the experiment with SW-620 colon. The TGI in the experiment on CAKI-1 renal came out at 3.32 µM; with CCRF-CEM leukemia, 4.36 µM; in the experiment with COLO 205 colon it was 2.78 µM; with HCT-116 colon, 3.11 µM; in the experiment with HS 578T breast, 36.9 µM; in the experiment with MALME-3M melanoma it was 3.9 µM. Further, the TGI in the experiment on RPMI-8226 leukemia was found to be 4.74 µM; with SK-OV-3 ovarian it was 27.2 µM; in the experiment with SNB-75 CNS, 21.7 µM; in the experiment on SW-620 colon, 5.27 µM.

With `O=C(c1ccco1)c1c(C(F)(F)F)n([O-])c2ccccc2[n+]1=O`, the GI50 was 1.13 µM with CAKI-1 renal; 0.671 µM with CCRF-CEM leukemia; 3.32 µM with COLO 205 colon; 0.434 µM with HCT-116 colon; 1.75 µM with HS 578T breast; 1.68 µM with MALME-3M melanoma. In addition, the GI50 in the experiment with RPMI-8226 leukemia is 0.227 µM; in the experiment with SK-OV-3 ovarian it was 6.69 µM; in the experiment with SNB-75 CNS, 8.36 µM; in the experiment on SW-620 colon, 0.859 µM. Moreover, the TGI in the experiment with CAKI-1 renal came to 3.94 µM; in the experiment on CCRF-CEM leukemia, 3.71 µM; in the experiment with COLO 205 colon, 28.5 µM; in the experiment on HCT-116 colon it was 8.52 µM; in the experiment with HS 578T breast, 13.1 µM; in the experiment with MALME-3M melanoma it was 8.02 µM. Besides, the TGI stood at 1.27 µM in the experiment with RPMI-8226 leukemia, 21 µM in the experiment with SK-OV-3 ovarian, 25.1 µM in the experiment on SNB-75 CNS and 20.5 µM in the experiment on SW-620 colon.
